Reference: ChEMBL document CHEMBL1134228, “Structure-activity analysis of truncated orexin-A analogues at the orexin-1 receptor” (Bioorg Med Chem Lett, 2001)
Active and inactive are the calls of the source. The rule behind the calls is not given here.

System: CHO
Test: Percentage response for agonist like activity at 10 uM, relative to maximal orexin-A induced response in CHO cells was determined; Inactive
Assay type: functional, cell-based
Conditions: Cricetulus griseus

Row | Molecule | Activity
1 | CC[C@H](C)[C@H](NC(=O)CNC(=O)[C@H](C)NC(=O)[C@H](C)NC(=O)[C@H](Cc1c[nH]cn1)NC(=O)[C@H](CC(N)=O)NC(=O)CNC(=O)[C@H](C)NC(=O)CNC(=O)[C@H](Cc1c[nH]cn1)NC(=O)[C@H](CC(C)C)NC(=O)[C@H](CC(C)C)NC(=O)[C@H](CCC(=O)O)NC(=O)[C@H](Cc1ccc(O)cc1)NC(=O)[C@H](CC(C)C)NC(=O)[C@@H](N)CCCN=C(N)N)C(=O)N[C@@H](CC(C)C)C(=O)N[C@@H](C(=O)N[C@@H](CC(C)C)C(N)=O)[C@@H](C)O | inactive
2 | H-GILTL-NH2 | inactive

System: not listed separately
Test: Functional potency was determined by concentration required for activation of OX1 (Orexin-1) receptor expressed in chinese hamster ovary cells (CHO) and increasing the intracellular calcium concentration
Assay type: cell-based
Conditions: Cricetulus griseus

Row | EC50 | Molecule
3 | 355 nM | CC[C@H](C)[C@H](NC(=O)CNC(=O)[C@H](C)NC(=O)[C@H](C)NC(=O)[C@H](Cc1cnc[nH]1)NC(=O)[C@H](CC(N)=O)NC(=O)CNC(=O)[C@H](C)NC(=O)CNC(=O)[C@H](Cc1cnc[nH]1)NC(=O)[C@H](CC(C)C)NC(=O)[C@H](CC(C)C)NC(=O)[C@H](CCC(=O)O)NC(=O)[C@H](Cc1ccc(O)cc1)NC(=O)[C@H](CC(C)C)NC(=O)[C@@H](N)CCCNC(=N)N)C(=O)N[C@@H](CC(C)C)C(=O)N[C@H](C(=O)N[C@@H](CC(C)C)C(N)=O)[C@@H](C)O
4 | 347 nM | H-ALYELLHGAGNHAAGILTL-NH2
5 | 776 nM | H-RLAELLHGAGNHAAGILTL-NH2
6 | 195 nM | H-RLYALLHGAGNHAAGILTL-NH2
7 | 1290 nM | H-RLYELLAGAGNHAAGILTL-NH2
8 | 646 nM | H-RLYELLHAAGNHAAGILTL-NH2
9 | 832 nM | H-RLYELLHGAANHAAGILTL-NH2

Molecular target: T1, Orexin/Hypocretin receptor type 1 (Homo sapiens) (UniProt O43613)
T1 sequence (whole entry): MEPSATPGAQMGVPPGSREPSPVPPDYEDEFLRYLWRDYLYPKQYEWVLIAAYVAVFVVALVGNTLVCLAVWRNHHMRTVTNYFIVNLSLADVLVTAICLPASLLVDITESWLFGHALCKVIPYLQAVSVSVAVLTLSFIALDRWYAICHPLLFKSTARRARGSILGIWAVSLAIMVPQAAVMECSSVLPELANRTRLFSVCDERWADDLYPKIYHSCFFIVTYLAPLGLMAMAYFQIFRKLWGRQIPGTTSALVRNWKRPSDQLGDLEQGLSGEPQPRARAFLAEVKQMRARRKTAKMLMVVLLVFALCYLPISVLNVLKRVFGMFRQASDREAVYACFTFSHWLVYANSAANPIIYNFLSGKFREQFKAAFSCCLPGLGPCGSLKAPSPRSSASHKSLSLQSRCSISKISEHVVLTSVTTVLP
Test: Compound was tested for antagonist activity expressed as percentage response at 10 uM, relative to maximal orexin-A induced response against OX1 receptor; IA is Inactive
Assay type: functional
Conditions: not given

Row | Activity | Molecule
10 | inactive | H-GNHAAGILTL-NH2

System: CHO
Test: Percentage response at 10 uM, relative to maximal orexin-A induced response; Inactive
Assay type: functional, cell-based
Conditions: Cricetulus griseus

Row | Molecule | Activity
11 | H-RLYELLHGAGNHAAGALTL-NH2 | inactive

Molecular target: T2, Orexin/Hypocretin receptor type 1 (Homo sapiens, UniProt O43613)
T2 sequence (O43613 whole entry): T1 sequence (whole entry)
Test: Binding affinity to Orexin receptor type 1 was determined using laser scanning cytometry
Conditions: not given

Row | Ki | Molecule
12 | 269 nM | CC[C@H](C)[C@H](NC(=O)CNC(=O)[C@H](C)NC(=O)[C@H](C)NC(=O)[C@H](Cc1cnc[nH]1)NC(=O)[C@H](CC(N)=O)NC(=O)CNC(=O)[C@H](C)NC(=O)CNC(=O)[C@H](Cc1cnc[nH]1)NC(=O)[C@H](CC(C)C)NC(=O)[C@H](CC(C)C)NC(=O)[C@H](CCC(=O)O)NC(=O)[C@H](Cc1ccc(O)cc1)NC(=O)[C@H](CC(C)C)NC(=O)[C@@H](N)CCCNC(=N)N)C(=O)N[C@@H](CC(C)C)C(=O)N[C@H](C(=O)N[C@@H](CC(C)C)C(N)=O)[C@@H](C)O
13 | 66100 nM | H-ELLHGAGNHAAGILTL-NH2

System: CHO
Test: Percentage response for agonist like activity at 10 uM, relative to maximal orexin-A induced response in CHO cells was determined
Assay type: functional, Cricetulus griseus
Conditions: not given

Row | Molecule | Activity
14 | CC[C@H](C)[C@H](NC(=O)[C@@H](C)NC(=O)[C@H](C)NC(=O)[C@H](C)NC(=O)[C@H](Cc1c[nH]cn1)NC(=O)[C@H](CC(N)=O)NC(=O)CNC(=O)[C@H](C)NC(=O)CNC(=O)[C@H](Cc1c[nH]cn1)NC(=O)[C@H](CC(C)C)NC(=O)[C@H](CC(C)C)NC(=O)[C@H](CCC(=O)O)NC(=O)[C@H](Cc1ccc(O)cc1)NC(=O)[C@H](CC(C)C)NC(=O)[C@@H](N)CCCN=C(N)N)C(=O)N[C@@H](CC(C)C)C(=O)N[C@H](C(=O)N[C@@H](CC(C)C)C(N)=O)[C@@H](C)O | 15%
15 | H-ELLHGAGNHAAGILTL-NH2 | 13%
16 | H-LLHGAGNHAAGILTL-NH2 | 16%
17 | H-RAYELLHGAGNHAAGILTL-NH2 | 71%
18 | H-RLYEALHGAGNHAAGILTL-NH2 | 60%
19 | H-RLYELAHGAGNHAAGILTL-NH2 | 37%
20 | H-RLYELLHGAGNAAAGILTL-NH2 | 61%
21 | H-RLYELLHGAGNHAAGIATL-NH2 | 12%
22 | H-RLYELLHGAGNHAAGILAL-NH2 | 39%
23 | H-RLYELLHGAGNHAAGILTA-NH2 | 15%
24 | H-YELLHGAGNHAAGILTL-NH2 | 40%
